# Measured values: ChEMBL document CHEMBL4507272 (2021)
# Tests used:
# [1] = target: Glycogen synthase kinase-3 alpha (Homo sapiens) (UniProt P49840); settings: Compound concentration 1000.0 nM
# [2] = target: Cyclin-dependent kinase 14 (Homo sapiens) (UniProt O94921); settings: Compound concentration 1000.0 nM
# [3] = target: cGMP-dependent protein kinase 2 (Homo sapiens) (UniProt Q13237); settings: Compound concentration 1000.0 nM
# [4] = target: Glycogen synthase kinase-3 beta (Homo sapiens) (UniProt P49841); settings: Compound concentration 1000.0 nM
# [5] = target: Phosphorylase b kinase gamma catalytic chain, skeletal muscle/heart isoform (Homo sapiens) (UniProt Q16816); settings: Compound concentration 1000.0 nM
# [6] = target: Serine/threonine-protein kinase PLK1 (Homo sapiens) (UniProt P53350); settings: Compound concentration 1000.0 nM
# [7] = target: Serine/threonine-protein kinase N2 (Homo sapiens) (UniProt Q16513); settings: Compound concentration 1000.0 nM
# [8] = target: Serine/threonine-protein kinase SBK1 (Homo sapiens) (UniProt Q52WX2); settings: Compound concentration 1000.0 nM
# [9] = target: Serine/threonine-protein kinase LATS2 (Homo sapiens) (UniProt Q9NRM7); settings: Compound concentration 1000.0 nM
# [10] = target: 5-hydroxytryptamine receptor 1B (Homo sapiens) (UniProt P28222); settings: Compound concentration 10.0 uM
# [11] = test system: Leucine-rich repeat serine/threonine-protein kinase 2 (Homo sapiens), Q5S007 [G2019S]; settings: Compound concentration 1000.0 nM
# [12] = target: Homeodomain-interacting protein kinase 4 (Homo sapiens) (UniProt Q8NE63); settings: Compound concentration 1000.0 nM
# [13] = target: Serine/threonine-protein kinase 4 (Homo sapiens) (UniProt Q13043); settings: Compound concentration 1000.0 nM
# [14] = target: Eukaryotic translation initiation factor 2-alpha kinase 1 (Homo sapiens) (UniProt Q9BQI3); settings: Compound concentration 1000.0 nM
# [15] = target: Dual specificity protein kinase CLK2 (Homo sapiens) (UniProt P49760); settings: Compound concentration 1000.0 nM
# [16] = target: Serine/threonine-protein kinase Chk1 (Homo sapiens) (UniProt O14757); settings: Compound concentration 1000.0 nM
# [17] = target: Casein kinase I isoform gamma-1 (Homo sapiens) (UniProt Q9HCP0); settings: Compound concentration 1000.0 nM
# [18] = target: Mitogen-activated protein kinase 4 (Homo sapiens) (UniProt P31152); settings: Compound concentration 1000.0 nM
# [19] = target: Ribosomal protein S6 kinase alpha-4 (Homo sapiens) (UniProt O75676); settings: Compound concentration 1000.0 nM
# [20] = target: Cyclin-dependent kinase 5 (Homo sapiens) (UniProt Q00535); settings: Compound concentration 1000.0 nM
# [21] = target: Rho-associated protein kinase 2 (Homo sapiens) (UniProt O75116); settings: Compound concentration 1000.0 nM
# [22] = target: Megakaryocyte-associated tyrosine-protein kinase (Homo sapiens) (UniProt P42679); settings: Compound concentration 1000.0 nM
# [23] = target: RAC-alpha serine/threonine-protein kinase (Homo sapiens) (UniProt P31749); settings: Compound concentration 1000.0 nM
# [24] = target: Cyclin-dependent kinase 3 (Homo sapiens) (UniProt Q00526); settings: Compound concentration 1000.0 nM
# [25] = target: Beta-2 adrenergic receptor (Homo sapiens) (UniProt P07550); settings: Compound concentration 10.0 uM
# [26] = target: Serine/threonine-protein kinase OSR1 (Homo sapiens) (UniProt O95747); settings: Compound concentration 1000.0 nM
# [27] = target: Alpha-2C adrenergic receptor (Homo sapiens) (UniProt P18825); settings: Compound concentration 10.0 uM
# [28] = target: Protein kinase C delta type (Homo sapiens) (UniProt Q05655); settings: Compound concentration 1000.0 nM
# [29] = target: Tyrosine-protein kinase ABL1 (Homo sapiens) (UniProt P00519); settings: Compound concentration 1000.0 nM
# [30] = target: Protein kinase C iota type (Homo sapiens) (UniProt P41743); settings: Compound concentration 1000.0 nM
# [31] = target: Phosphatidylinositol 4-phosphate 5-kinase type-1 gamma (Homo sapiens) (UniProt O60331); settings: Compound concentration 1000.0 nM
# [32] = target: Focal adhesion kinase 1 (Homo sapiens) (UniProt Q05397); settings: Compound concentration 1000.0 nM
# [33] = target: Cyclin-dependent kinase 11B (Homo sapiens) (UniProt P21127); settings: Compound concentration 1000.0 nM
# [34] = target: Casein kinase I isoform epsilon (Homo sapiens) (UniProt P49674); settings: Compound concentration 1000.0 nM
# Histamine H3 receptor = Histamine H3 receptor (Homo sapiens, UniProt Q9Y5N1); settings: Compound concentration 10.0 uM
# [35] = target: Serine/threonine-protein kinase DCLK2 (Homo sapiens) (UniProt Q8N568); settings: Compound concentration 1000.0 nM
# [36] = test system: Proto-oncogene tyrosine-protein kinase receptor Ret (Homo sapiens), P07949 [M918T]; settings: Compound concentration 1000.0 nM
# [37] = target: GABA-A receptor; anion channel (Rattus norvegicus) (UniProt O09028+P15431+P18506+P18508+P19969+P20236+P23574+P23576+P28471+P28473+P30191+P62813+P63079+P63138+Q91ZM7+Q9ES14); settings: Compound concentration 10.0 uM
# [38] = target: Ephrin type-A receptor 6 (Homo sapiens) (UniProt Q9UF33); settings: Compound concentration 1000.0 nM
# [39] = target: cAMP-dependent protein kinase catalytic subunit beta (Homo sapiens) (UniProt P22694); settings: Compound concentration 1000.0 nM
# [40] = target: Serine/threonine-protein kinase WNK1 (Homo sapiens) (UniProt Q9H4A3); settings: Compound concentration 1000.0 nM
# [41] = test system: Epidermal growth factor receptor (Homo sapiens), P00533 [UNDEFINED MUTATION]; settings: Compound concentration 1000.0 nM
# [42] = target: Serine/threonine-protein kinase haspin (Homo sapiens) (UniProt Q8TF76); settings: Compound concentration 1000.0 nM
# [43] = target: Muscarinic acetylcholine receptor M5 (Homo sapiens) (UniProt P08912); settings: Compound concentration 10.0 uM
# Muscarinic acetylcholine receptor M5 (Homo sapiens), sequence (P08912 whole entry): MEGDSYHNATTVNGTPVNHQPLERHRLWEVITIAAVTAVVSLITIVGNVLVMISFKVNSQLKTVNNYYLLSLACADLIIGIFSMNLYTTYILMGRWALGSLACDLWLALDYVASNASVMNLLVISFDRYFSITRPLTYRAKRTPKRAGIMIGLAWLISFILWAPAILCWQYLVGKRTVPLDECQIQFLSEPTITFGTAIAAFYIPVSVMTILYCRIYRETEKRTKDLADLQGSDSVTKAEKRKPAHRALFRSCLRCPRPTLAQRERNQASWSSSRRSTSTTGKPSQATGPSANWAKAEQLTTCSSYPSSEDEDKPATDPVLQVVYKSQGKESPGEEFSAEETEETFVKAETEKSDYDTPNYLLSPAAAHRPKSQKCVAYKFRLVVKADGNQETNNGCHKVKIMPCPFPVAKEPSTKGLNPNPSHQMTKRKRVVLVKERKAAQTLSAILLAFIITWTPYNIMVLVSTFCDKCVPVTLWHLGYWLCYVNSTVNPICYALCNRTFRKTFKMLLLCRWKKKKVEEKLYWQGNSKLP
# Alpha-2C adrenergic receptor (Homo sapiens), sequence (P18825 whole entry): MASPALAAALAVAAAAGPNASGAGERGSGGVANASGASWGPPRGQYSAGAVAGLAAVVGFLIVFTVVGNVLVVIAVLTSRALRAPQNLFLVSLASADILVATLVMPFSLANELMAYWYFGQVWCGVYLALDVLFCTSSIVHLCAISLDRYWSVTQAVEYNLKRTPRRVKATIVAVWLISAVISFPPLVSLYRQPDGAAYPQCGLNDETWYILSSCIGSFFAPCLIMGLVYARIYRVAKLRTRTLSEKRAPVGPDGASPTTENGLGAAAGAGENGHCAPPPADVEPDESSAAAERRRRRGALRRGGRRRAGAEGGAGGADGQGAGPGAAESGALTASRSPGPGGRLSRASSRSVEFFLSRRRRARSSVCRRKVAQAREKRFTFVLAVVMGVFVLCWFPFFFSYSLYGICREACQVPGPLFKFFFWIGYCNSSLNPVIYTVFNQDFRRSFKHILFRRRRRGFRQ
# Focal adhesion kinase 1 (Homo sapiens), sequence (Q05397 2-1052 limits assumed): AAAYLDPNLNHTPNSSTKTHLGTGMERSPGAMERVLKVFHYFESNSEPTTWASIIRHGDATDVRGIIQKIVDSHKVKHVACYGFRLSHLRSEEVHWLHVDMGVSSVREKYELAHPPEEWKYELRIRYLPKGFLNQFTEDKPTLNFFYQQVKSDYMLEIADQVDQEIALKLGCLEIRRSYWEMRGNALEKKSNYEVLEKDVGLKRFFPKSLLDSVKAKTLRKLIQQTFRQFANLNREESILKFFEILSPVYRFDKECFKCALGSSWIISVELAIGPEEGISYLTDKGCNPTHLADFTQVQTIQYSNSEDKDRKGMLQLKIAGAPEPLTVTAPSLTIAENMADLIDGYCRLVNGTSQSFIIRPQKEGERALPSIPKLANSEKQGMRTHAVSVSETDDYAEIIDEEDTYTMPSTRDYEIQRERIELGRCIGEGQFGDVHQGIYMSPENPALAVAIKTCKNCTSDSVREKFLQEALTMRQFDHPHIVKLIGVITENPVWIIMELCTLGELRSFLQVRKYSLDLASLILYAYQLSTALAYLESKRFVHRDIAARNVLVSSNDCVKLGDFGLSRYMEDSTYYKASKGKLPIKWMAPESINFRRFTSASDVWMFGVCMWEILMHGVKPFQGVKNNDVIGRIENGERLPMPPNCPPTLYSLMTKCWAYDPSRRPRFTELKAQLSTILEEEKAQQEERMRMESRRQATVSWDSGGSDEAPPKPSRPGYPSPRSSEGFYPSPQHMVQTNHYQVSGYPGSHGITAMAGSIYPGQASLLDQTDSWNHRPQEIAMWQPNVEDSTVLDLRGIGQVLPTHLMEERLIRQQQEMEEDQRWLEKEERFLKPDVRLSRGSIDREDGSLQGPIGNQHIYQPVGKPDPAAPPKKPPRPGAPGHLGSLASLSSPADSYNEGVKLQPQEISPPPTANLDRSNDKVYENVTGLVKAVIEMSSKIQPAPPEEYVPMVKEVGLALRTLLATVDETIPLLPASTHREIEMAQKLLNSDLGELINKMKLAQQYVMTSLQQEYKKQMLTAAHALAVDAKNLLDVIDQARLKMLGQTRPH
# Proto-oncogene tyrosine-protein kinase receptor Ret (Homo sapiens), P07949 [M918T], sequence (P07949 whole entry M918T): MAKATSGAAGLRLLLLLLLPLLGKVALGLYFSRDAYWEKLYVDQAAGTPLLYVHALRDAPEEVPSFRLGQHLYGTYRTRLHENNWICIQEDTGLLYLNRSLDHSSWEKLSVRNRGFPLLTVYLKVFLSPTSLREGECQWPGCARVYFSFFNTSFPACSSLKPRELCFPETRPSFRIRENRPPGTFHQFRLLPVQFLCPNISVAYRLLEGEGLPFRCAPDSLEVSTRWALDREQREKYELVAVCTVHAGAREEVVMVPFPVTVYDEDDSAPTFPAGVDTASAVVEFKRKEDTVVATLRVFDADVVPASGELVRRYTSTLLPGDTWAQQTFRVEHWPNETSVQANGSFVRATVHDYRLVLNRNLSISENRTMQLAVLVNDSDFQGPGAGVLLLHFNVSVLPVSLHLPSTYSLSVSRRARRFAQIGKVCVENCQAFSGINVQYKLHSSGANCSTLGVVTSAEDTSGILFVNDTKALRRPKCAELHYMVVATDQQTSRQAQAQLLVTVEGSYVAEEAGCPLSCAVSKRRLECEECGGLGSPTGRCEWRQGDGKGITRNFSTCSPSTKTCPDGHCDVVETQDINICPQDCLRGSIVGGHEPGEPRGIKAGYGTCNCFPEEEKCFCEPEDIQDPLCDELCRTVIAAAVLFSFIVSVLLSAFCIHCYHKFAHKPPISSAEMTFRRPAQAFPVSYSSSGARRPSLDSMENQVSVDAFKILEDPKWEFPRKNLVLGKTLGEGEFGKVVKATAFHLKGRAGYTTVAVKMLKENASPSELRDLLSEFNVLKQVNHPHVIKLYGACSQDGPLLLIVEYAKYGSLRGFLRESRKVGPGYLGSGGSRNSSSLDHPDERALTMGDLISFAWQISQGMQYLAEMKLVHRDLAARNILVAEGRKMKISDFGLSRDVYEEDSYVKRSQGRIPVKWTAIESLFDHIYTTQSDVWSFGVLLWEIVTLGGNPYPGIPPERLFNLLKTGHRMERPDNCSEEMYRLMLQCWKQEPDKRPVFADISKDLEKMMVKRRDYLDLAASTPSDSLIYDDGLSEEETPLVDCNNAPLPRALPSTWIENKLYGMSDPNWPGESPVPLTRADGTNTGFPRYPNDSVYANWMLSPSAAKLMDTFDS
# Homeodomain-interacting protein kinase 4 (Homo sapiens), sequence (Q8NE63 whole entry): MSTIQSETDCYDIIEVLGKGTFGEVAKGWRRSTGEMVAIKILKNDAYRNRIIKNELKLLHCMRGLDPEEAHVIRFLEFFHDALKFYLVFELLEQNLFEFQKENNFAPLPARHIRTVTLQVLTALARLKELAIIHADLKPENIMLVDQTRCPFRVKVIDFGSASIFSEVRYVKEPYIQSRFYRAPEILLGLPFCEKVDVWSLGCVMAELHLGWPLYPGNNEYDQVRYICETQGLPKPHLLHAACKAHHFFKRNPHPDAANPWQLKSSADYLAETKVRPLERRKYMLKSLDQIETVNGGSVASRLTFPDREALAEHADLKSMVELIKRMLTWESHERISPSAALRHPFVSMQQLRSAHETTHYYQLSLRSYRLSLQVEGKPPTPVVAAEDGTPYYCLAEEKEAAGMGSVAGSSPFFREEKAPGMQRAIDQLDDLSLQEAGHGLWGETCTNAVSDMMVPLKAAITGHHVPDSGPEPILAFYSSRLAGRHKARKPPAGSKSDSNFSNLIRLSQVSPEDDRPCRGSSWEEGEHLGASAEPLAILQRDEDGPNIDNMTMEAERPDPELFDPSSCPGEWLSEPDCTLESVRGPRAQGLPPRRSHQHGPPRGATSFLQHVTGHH
# Serine/threonine-protein kinase LATS2 (Homo sapiens), sequence (Q9NRM7 whole entry): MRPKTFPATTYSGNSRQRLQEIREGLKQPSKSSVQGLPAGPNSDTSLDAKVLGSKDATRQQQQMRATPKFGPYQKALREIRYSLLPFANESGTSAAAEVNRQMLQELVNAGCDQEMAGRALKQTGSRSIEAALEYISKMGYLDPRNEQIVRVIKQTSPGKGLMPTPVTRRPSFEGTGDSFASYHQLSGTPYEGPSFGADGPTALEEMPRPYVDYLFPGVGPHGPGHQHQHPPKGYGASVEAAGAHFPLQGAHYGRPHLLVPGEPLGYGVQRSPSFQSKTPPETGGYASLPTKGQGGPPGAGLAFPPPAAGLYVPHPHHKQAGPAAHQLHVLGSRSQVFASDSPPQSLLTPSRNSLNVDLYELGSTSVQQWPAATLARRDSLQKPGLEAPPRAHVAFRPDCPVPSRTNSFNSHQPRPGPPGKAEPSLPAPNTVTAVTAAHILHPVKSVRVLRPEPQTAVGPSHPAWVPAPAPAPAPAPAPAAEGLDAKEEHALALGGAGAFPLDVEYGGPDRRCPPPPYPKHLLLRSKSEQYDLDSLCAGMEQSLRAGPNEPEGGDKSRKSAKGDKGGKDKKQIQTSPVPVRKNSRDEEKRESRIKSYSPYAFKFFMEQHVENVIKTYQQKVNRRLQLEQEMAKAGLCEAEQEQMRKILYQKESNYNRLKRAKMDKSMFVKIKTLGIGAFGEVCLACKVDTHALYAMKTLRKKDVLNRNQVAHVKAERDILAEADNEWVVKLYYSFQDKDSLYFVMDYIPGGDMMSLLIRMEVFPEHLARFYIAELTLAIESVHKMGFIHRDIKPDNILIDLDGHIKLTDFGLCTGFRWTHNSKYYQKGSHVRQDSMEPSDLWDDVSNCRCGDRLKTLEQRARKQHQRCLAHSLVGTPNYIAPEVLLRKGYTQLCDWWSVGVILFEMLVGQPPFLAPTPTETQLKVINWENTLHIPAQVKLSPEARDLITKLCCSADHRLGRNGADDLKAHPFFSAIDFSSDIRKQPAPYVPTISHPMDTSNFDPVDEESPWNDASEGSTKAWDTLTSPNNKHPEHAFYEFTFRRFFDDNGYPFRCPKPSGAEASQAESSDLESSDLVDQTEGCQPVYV
structure (smiles),measurement,setting,value
CC(=O)C1=C(C)N(c2cccc(C(F)(F)F)c2)C(=O)N[C@@H]1c1ccc(C#N)nc1 [BAY-678],residual activity,[1],95%
same,residual activity,[2],91.7%
same,residual activity,[3],100%
same,residual activity,[4],100%
same,residual activity,[5],100%
same,residual activity,[6],100%
same,residual activity,[7],96.3%
same,residual activity,[8],100%
same,residual activity,[9],100%
same,inhibition,[10],6.69%
same,residual activity,[11],100%
same,residual activity,[12],100%
same,residual activity,[13],97.5%
same,residual activity,[14],100%
same,residual activity,[15],100%
same,residual activity,[16],73.2%
same,residual activity,[17],100%
same,residual activity,[18],100%
same,residual activity,[19],78.8%
same,residual activity,[20],100%
same,residual activity,[21],86.1%
same,residual activity,[22],100%
same,residual activity,[23],90.4%
same,residual activity,[24],100%
same,inhibition,[25],24.3%
same,residual activity,[26],100%
same,inhibition,[27],20.2%
same,residual activity,[28],100%
same,residual activity,[29],83.3%
same,residual activity,[30],100%
same,residual activity,[31],100%
same,residual activity,[32],100%
same,residual activity,[33],100%
same,residual activity,[34],100%
same,inhibition,Histamine H3 receptor,50%
same,residual activity,[35],88%
same,residual activity,[36],100%
same,inhibition,[37],11.9%
same,residual activity,[38],94.5%
same,residual activity,[39],48.7%
same,residual activity,[40],89%
same,residual activity,[41],80%
same,residual activity,[42],100%
same,inhibition,[43],-6.78%
